Assay results published in US20130210846A1, “USE OF NOVEL PAN-CDK INHIBITORS FOR TREATING TUMORS” (BAYER INTELLECTUAL PROPERTY GMBH, priority 2010, published 2013).

Experiments:
[1] = system: HeLa-MaTu human cervix carcinoma cells; experiment: HeLa-MaTu human cervix carcinoma xenograft model; format: in vivo, female NMRI nude mice
Excerpt: (§1) Tumor cells grown in cell culture were implanted subcutaneously in the flank of female or male NMRI nude mice. The treatment was started as soon as the tumors had grown to a size of approx. 20 mm^2 The study was ended as soon as the tumors in one of the groups reached a size of approx. 150 mm^2.
(§2) Vehicle group: treatment with solubilizer (40% PEG400/60% water)
(§3) The studies were designed for determining the initial response of the human tumor model to the treatment with the Exemplary compound 2-SI-2. Tumor growth inhibition in percent (TGI) was either calculated at the end of the studies from the tumor weights (TGITW) using the formula 100×[1−(tumor weight of the treatment group/tumor weight of the vehicle group)], or on the day the vehicle group had to be ended from the tumor areas (TGITA) using the formula 100×[1−(tumor area of the treatment group on the day of the measurement−tumor area of the treatment group prior to treatment)/(tumor area of the vehicle group on the day of the measurement−tumor area of the vehicle group prior to treatment)]. In the case of a tumor growth inhibition of more than 50%, the treatment was considered to have been effective.
Efficacy in the HeLa-MaTu human cervix carcinoma xenograft model
HeLa-MaTu human cervix carcinoma cells implanted into female NMRI nude mice
• a) 0.05 mg/ml, 0.10 mg/ml, 0.15 mg/ml, 0.2 mg/ml of Example 2-SI-2 in 40% (v/v) PEG 400 in water • b) 0.15 mg/ml, 0.2 mg/ml, 0.25 mg/ml of Example 2-SI-2 in 40% (v/v) PEG 400 in water
• a) 0.5 to 2.0 mg/kg (1.5 to 6.0 mg/m^2) 1× per day b) 1.5 to 2.5 mg/kg (4.5 to 7.5 mg/m^2) 2× per day on 2 successive days, followed by 5 treatment-free days

[2] = system: NCI-H526 human small-cell lung tumor cells; experiment: NCI-H526 human small-cell lung tumor model; format: in vivo, female NMRI nude mice
Excerpt: as §1, §2, §3
Efficacy in the NCI-H526 human small-cell lung tumor model.
NCI-H526 human small-cell lung tumor cells implanted into female NMRI nude mice.
• a) 0.20 mg/ml of Example 2-SI-2 in 40% (v/v) PEG 400 in water • b) 0.20 mg/ml of Example 2-SI-2 in 40% (v/v) PEG 400 in water • c) 0.15 mg/ml of Example 2-SI-2 in 40% (v/v) PEG 400 in water • d) 0.17 mg/ml of Example 2-SI-2 in 40% (v/v) PEG 400 in water
(§4) • a) 2.0 mg/kg (6.0 mg/m^2), 1× per day. • b) 2.0 mg/kg (6.0 mg/m^2), 2× per day on 2 successive days, followed by 5 treatment-free days. • c) 1.5 mg/kg (4.5 mg/m^2), 2× per day on 3 successive days, followed by 4 treatment-free days. • d) 1.7 mg/kg (5.1 mg/m^2), 2× per day on 3 successive days, followed by 4 treatment-free days.

[3] = system: MDA-MB231 human breast tumor cells; experiment: MDA-MB231 human breast tumor model; format: in vivo, female NMRI nude mice
Excerpt: as §1, §2, §3
Efficacy in the MDA-MB231 human breast tumor model MDA-MB231.
MDA-MB231 human breast tumor cells implanted into female NMRI nude mice.
• a) 0.20 mg/ml of Example 2-SI-2 in 40% (v/v) PEG 400 in water • b) 0.25 mg/ml of Example 2-SI-2 in 40% (v/v) PEG 400 in water • c) 0.15 mg/ml of Example 2-SI-2 in 40% (v/v) PEG 400 in water • d) 0.17 mg/ml of Example 2-SI-2 in 40% (v/v) PEG 400 in water
as §4, with “• b) 2.5 mg/kg (7.5” for “• b) 2.0 mg/kg (6.0”, “2.5 mg/kg (7.5 mg/m^2), 2×” for “2.0 mg/kg (6.0 mg/m^2), 2×”

A2780 = experiment: Proliferation assay A2780; format: cell-based; conditions: Homo sapiens, 96 h; A2780, ovarial carcinoma; 4 days, crystal violet
Protocol: Cultivated human tumor cells (originally obtained from ATCC, HeLa-MaTu and HeLa-MaTu-ADR, originally obtained from Epo GmbH, Berlin, Germany) were plated at a density of 1000 to 5000 cells/measuring point, depending on the growth rate of the cell line, in a 96-well multititer plate in 200 μl of growth medium (DMEM/HAMS F12, 2 mM L-glutamine, 10% fetal calf serum). After 24 hours the cells of one plate (zero-point plate) were stained with crystal violet (see below), whereas the medium of the other plates was replaced with fresh culture medium (200 μl), to which the test substances had been added at various concentrations (0 μM, and in the range 0.01-30 μM; the final concentration of the solvent dimethyl sulfoxide was 0.5%). The cells were incubated for 4 days in the presence of the test substances. Cellular proliferation was determined by staining the cells with crystal violet: the cells were fixed by adding 20 μl/measuring point of an 11% glutaraldehyde solution for 15 min at room temperature. […] The extinction was determined photometrically at a wavelength of 595 nm. The percentage change in cell growth was calculated by standardization of the measured values to the extinction values of the zero-point plate (=0%) and the extinction of the untreated (0 μM) cells (=100%). […] The IC50 values were determined by means of a 4-parameter fit using the company's own software. […]

[4] = HeLa-MaTu; b) 2.5 mg/kg oral 2× per day on 2 successive days, followed by 5 treatment-free days

C[C@@H](O)[C@@H](C)Oc1nc(Nc2ccc(S(C)(=N)=O)cc2)ncc1C(F)(F)F (mixture of isomers) [Example 2-SI-2, (RS)—S-(4-{[4-{[(1R,2R)-2-Hydroxy-1-methylpropyl]oxy}-5-(trifluoromethyl)pyrimidin-2-yl]-amino}phenyl)-S-methylsulfoximide]
TGITW (tumor growth inhibition from tumor weights) ([1]; HeLa-MaTu; a) 2.0 mg/kg oral 1× per day): 97% | TGITW (tumor growth inhibition from tumor weights) [1, 4]: 98% | tumor regression observation [1, 4]: signs of tumor regression | TGITW (tumor growth inhibition from tumor weights) ([2]; NCI-H526; a) 2.0 mg/kg oral 1× per day): 98% | TGITW (tumor growth inhibition from tumor weights) ([2]; NCI-H526; b) 2.0 mg/kg oral 2× per day on 2 successive days, followed by 5 treatment-free days): 72% | TGITW (tumor growth inhibition from tumor weights) ([2]; NCI-H526; c) 1.5 mg/kg oral 2× per day on 3 successive days, followed by 4 treatment-free days): 79% | TGITW (tumor growth inhibition from tumor weights) ([2]; NCI-H526; d) 1.7 mg/kg oral 2× per day on 3 successive days, followed by 4 treatment-free days): 88% | TGITA (tumor growth inhibition from tumor areas, measured on the day the vehicle group was ended) ([3]; MDA-MB231; a) 2.0 mg/kg oral 1× per day): 92% | TGITA (tumor growth inhibition from tumor areas) ([3]; MDA-MB231; b) 2.5 mg/kg oral 2× per day on 2 successive days, followed by 5 treatment-free days): 76% | TGITA (tumor growth inhibition from tumor areas) ([3]; MDA-MB231; c) 1.5 mg/kg oral 2× per day on 3 successive days, followed by 4 treatment-free days): 70% | TGITA (tumor growth inhibition from tumor areas) ([3]; MDA-MB231; d) 1.7 mg/kg oral 2× per day on 3 successive days, followed by 4 treatment-free days): 70%

C[C@@H](O)[C@@H](C)Oc1nc(Nc2ccc(S(C)(=N)=O)cc2)ncc1C(F)(F)F (single isomer, unassigned) [Example 2-SI-2]
IC50 (A2780): 3 nM
